Measurements from patent publication US20250281500A1, “FUSED AMINO PYRIMIDINE COMPOUNDS AND PRIDOPIDINE FOR TREATMENT OF HUNTINGTON’S DISEASE” (Ovid Therapeutics Inc., priority 2024, published 2025).

Experiments:
[1] = tested on: panel of 144 protein kinases; assay: SelectScreen panel of 144 protein kinases; format: biochemical; settings: incl. PKC isoforms, OSR1, SPAK, WNK
mice = assay: KA induced ongoing SE, EEG, treatment with DZ or DZ/Compound A 2 h after KA; format: in vivo; settings: given 2 h after KA
Experimental: EEG recordings and analysis. WT C57Bl/6J adult male mice (12 weeks) were anesthetized with isofluorane and implanted with EEG/EMG electrodes and allowed to recover for 7 days prior to experimentation. […] 2 h following KA administration mice were injected with a saturating concentration of diazepam (DZ) 10 mg/kg (IP) and recordings were extended for a further 60 min. […] LabChart 8 software was used for data analysis. Epileptiform activity was identified by changes in the amplitude of electrographic activity characterized by consistent changes in the power of the Fast Fourier transform (FFT) of the EEG and abnormal activity characterized by periods of rhythmic spiking lasting longer than 30 s (Moore et al., 2017, supra; Silayeva et al., 2015, supra; Sivakumaran et al., J. Neurosci. 35, 8291-8296 (2015)).
To evaluate the potential of KCC2 activators to terminate ongoing SE, the KA model described above was employed. Mice were injected with KA (20 mg/Kg; IP). […] Spectral data were then subjected to FFT and the total EEG power between 1-100 Hz of the 2 h following KA treatment (pre-drug) and 30 min following their injection (post-drug) were compared (FIG. 6B). In mice treated with DZ alone variable effects were observed, from large increases to modest reductions in EEG power, but these effects were not significant (FIG. 6C; pre=1.1±0.2×10^−6, post=4.4±7.4×10^−7 μV^2, p=0.214, n=13-14 mice). […]

Compound	activity of a panel of 144 protein kinases [1]	mice insensitive to the effects of DZ on EEG power (mice)
C[C@@H]1CN(c2nc3c(c(Nc4ccc(C5CCCCC5)cc4)n2)COC3)CCO1 [Compound A, (R)-N-(4-cyclohexylphenyl)-2-(2-methylmorpholino)-5,7-dihydrofuro[3,4-d]pyrimidin-4-amine]	did not modify the activity	abolished
CN1C(=O)CN=C(c2ccccc2)c2cc(Cl)ccc21 [DZ, diazepam, reference compound]		62%
